# Experimental data as given in US9724380B2, “Method and compositions for synchronizing time of insemination in gilts” (JBS UNITED ANIMAL HEALTH II LLC, priority 2012, dated 2017).
# Tests used:
# Assay type in all cases: in vivo, swine
# gilts [1] = assay: Example 5: estrus observation after triptorelin gel dose groups; settings: all treatments (did not differ among treatments)
# Description: (§1) All gilts were individually fed MATRIX® as a top-dress for 14 or 15 days at the recommended rate of 15 mg/gilt/day. Gilts were withdrawn from MATRIX® feeding (last top-dress in the morning on Day 0) and allocated to each of the following treatments. Controls were vehicle gel treated (vehicle gel without triptorelin) at 120 (+/−2) hours following MATRIX® withdrawal (last top dress). The other gilts were given 100, 200 or 400 mcg triptorelin as the acetate in a methylcellulose gel formulation 120 (+/−2) hours following MATRIX® withdrawal. The four treatments were: • 1. Vehicle gel (VG): vehicle gel without triptorelin at 120 (+/−2) hours after MATRIX® withdrawal. • 2. TG 100: 100 mcg (2 mL 50 mcg/mL) triptorelin gel at 120 (+/−2) hours after MATRIX® withdrawal. • 3. TG 200: 200 mcg (2 mL 100 mcg/mL) triptorelin gel at 120 (+/−2) hours after MATRIX® withdrawal. • 4. TG 400: 400 mcg (2 mL 200 mcg/mL) triptorelin gel at 120 (+/−2) hours after MATRIX® withdrawal.
# (§2) Triptorelin (pGlu-His-Trp-Ser-Tyr-D-Trp-Leu-Arg-Pro-Gly-NH2) was supplied in the acetate form, from Bachem, Torrance, Calif. (Item H-4075 CGMP grade). Triptorelin gel (100-400 mcg/2 mL dose) was formulated by Argenta (Auckland, NZ) in a gel composed of Methocel Premium A4000 (Dow Chemical), citrate buffer (pH 5.5), NaCl, methionine, and methyl and propyl parabens. Fifty-four milliliters of triptorelin gel (100 mcg triptorelin acetate/mL) was packaged in Amber Borosilicate Glass Serum Vials (610206-50) with a Gray Butyl Pharmaceutical Serum Vial Stopper (73828A-SS) with a Standard Aluminum Seal (SAS20NAT). […] MATRIX® was supplied as the US commercially available form.
# For post-treatment estrus detection, gilts were housed in individual pens. Boars were housed in separate rooms, and/or at least 12 m away and downwind. To elicit signs of estrus, a mature boar was walked slowly in the alley in front of the gilts' crates, exposing each test gilt to visual, auditory and olfactory signals from the boar for up to 5 minutes. In keeping with standard practice at commercial farms, while the boar was near the front of the gilt's crate, estrus was tested by an experienced person applying back pressure to the midsection of the gilt combined with side rubbing. Estrus was confirmed when a gilt stood rigidly to the back pressure, with no vocalization and with some indication of an ear reflex. Gilts were not exposed to boars during the first three days after withdrawal of MATRIX® (Day 0 to Day 2). Estrus detection was performed daily on all gilts from Day 3 to Day 7.
# A single 2 mL dose of triptorelin gel or vehicle gel was deposited within approximately 1-2 cm posterior to the cervix with a catheter similar to those used for artificial insemination. The dose was delivered using a standard multi-dose applicator attached to the catheter. […]
# gilts [2] = assay: Example 3: estrus observation post-MATRIX; settings: younger gilts at the second site, all treatments
# Description: Three hundred twelve (312) gilts were fed MATRIX® as a top-dress for 14 days at the recommended rate of 15 mg/gilt/day. The last feeding of MATRIX® was at 6:30 AM (Day 0). One hundred four gilts were allocated to each of the following treatments: • 1. Group 1, Controls (n=104); MATRIX® treated, but not OvuGel™ treated, inseminated daily during estrus, as is normally practiced at the site (average of 1.8 inseminations per gilt). • 2. Group 2 (n=104); OvuGel™ treated at 7:00 am (+/−1.5 hours) on Day 5 and inseminated at 2 to 4 hours post-OvuGel™ treatment on Day 5 if expressing estrus. All gilts inseminated once on Day 6, 26 hours (+/−2 hrs) post-OvuGel™ treatment, regardless of estrus status. • 3. Group 3 (n=104); OvuGel™ treated at 7:00 am (+/−1.5 hours) on Day 5 and inseminated once at 2 to 4 hours post-OvuGel™ treatment on Day 5 and again on Day 6, 26 hours (+/−2 hrs) post-OvuGel™ treatment, without regard to estrus on either day.
# (§3) Gilts were housed in individual pens. Boars were housed at least 12 m away and downwind. […] To facilitate detection of estrus, a mature boar was walked slowly in the alley in front of the gilt's pen, exposing each gilt to visual, auditory and olfactory signals from the boar for up to 5 minutes. […]
# gilts [3] = assay: Example 5: ovulation monitored by transrectal ultrasonography after 100, 200 or 400 mcg triptorelin gel intravaginally at 120 h after MATRIX withdrawal; settings: all treatments
# Description: as §1, §2
# Ovulation was monitored twice on Day 5 (8 hours and 16 hours post-treatment) and every 8 hours on Day 6 and Day 7 or until ovulation was confirmed or 176 hours following last MATRIX® feeding. The ovulatory status of all gilts was monitored by transrectal ultrasonography. An Aloka 500 ultrasound machine is used for this purpose, with a 7.5 MHz linear array transducer attached to a fixed-angle PVC stabilizing rod to facilitate insertion into the rectum. The transducer and PVC rod are coated with a gynecological lubricant and gently inserted into the rectum until the ovaries can be visualized, one at a time. The diameters of the three largest follicles were recorded (to the nearest 0.1 mm) at each scanning. A gilt was declared to have ovulated when the number of large follicles (≧6.5 mm) fell to less than 3.
# A single 2 mL dose of triptorelin gel or vehicle gel was deposited within approximately 1-2 cm posterior to the cervix with a catheter similar to those used for artificial insemination. The dose was delivered using a standard multi-dose applicator attached to the catheter. A new disposable sheath, which surrounds the catheter, was used for each gilt.
# gilts [4] = assay: Example 2: estrus observation post-MATRIX; settings: older gilts at the first site, all treatments
# Description: Two hundred ninety-seven (297) gilts were fed MATRIX® as a top-dress for 14 days at the recommended rate of 15 mg/gilt/day. The last feeding of MATRIX® was at 5:30 AM (Day 0). Approximately one hundred gilts were allocated to each of the following treatments: • 1. Group 1, Controls (n=100); MATRIX® treated, but not OvuGel™ treated, inseminated daily during estrus, as is normally practiced (average of 1.9 inseminations per gilt). • 2. Group 2 (n=98); OvuGel™ treated at 6:30 am (+/−1 hr) on Day 5 and inseminated at 2 to 11 hours post-OvuGel™ treatment on Day 5 if expressing estrus. All gilts inseminated once on Day 6, 26 hours (+/−2.5 hrs) post-OvuGel™ treatment, regardless of estrus status. • 3. Group 3 (n=99); OvuGel™ treated at 6:30 am (+/−1 hr) on Day 5 and inseminated once at 2.5 to 9.5 hours post-OvuGel™ treatment on Day 5 and again on Day 6, 26.5 hours (+/−3 hrs) post-OvuGel™ treatment, without regard to estrus on either day.
# as §3
structure (smiles),measurement,setting,value
"C=CC[C@]1(O)CC[C@H]2[C@@H]3CCC4=CC(=O)CCC4=C3C=C[C@@]21C [MATRIX®, altrenogest]",interval from last feeding of MATRIX to estrus,gilts [1],146 ± 22 h
same,percentage of gilts which expressed estrus after the last feeding of MATRIX,gilts [1],97%
same,gilts that showed estrus on Day 5,gilts [2],7.4%
same,"gilts ovulated within the experimental period, overall",gilts [3],94%
same,"gilts that first expressed estrus on Day 5 post-MATRIX, average",gilts [4],30.1%
